Details in all cases: 250 g/ha, evaluated after 13 days, five-point scale
In experiment [1] the test system is AMAPA. Description: Post-emergence herbicidal glasshouse test. The class given is in vivo, Amaranthus tuberculatus.
Experiment [2] has as its system Amaranthus retoflexus (AMARE). Description: Post-emergence herbicidal glasshouse test. The class given is in vivo.
Experiment [3] concerns AMAPA. Put plainly: Pre-emergence herbicidal glasshouse test. The class given is in vivo, Amaranthus tuberculatus.
For experiment [4], the system named is Setaria faberi (SETFA). Put plainly: Pre-emergence herbicidal glasshouse test. The class given is in vivo.
Experiment [5] has as its system Echinochloa crus-galli (ECHCG). Put plainly: Post-emergence herbicidal glasshouse test. Format: in vivo.
The test system of experiment [6] is Amaranthus retoflexus (AMARE). Put plainly: Pre-emergence herbicidal glasshouse test. The class given is in vivo.
The subject of experiment [7] is Echinochloa crus-galli (ECHCG). Description: Pre-emergence herbicidal glasshouse test. Format: in vivo.
Experiment [8] concerns Ipomoea hederacea (IPOHE). Description: Pre-emergence herbicidal glasshouse test. Format: in vivo.
Experiment [9] deals with Ipomoea hederacea (IPOHE). Put plainly: Post-emergence herbicidal glasshouse test. The class given is in vivo.
For experiment [10], the system named is Setaria faberi (SETFA). Description: Post-emergence herbicidal glasshouse test. Format: in vivo.

The source of these data is patent publication US20250179052A1, “PYRIMIDINYL-OXY-QUINOLINE BASED HERBICIDAL COMPOUNDS” (SYNGENTA CROP PROTECTION AG, priority 2022, published 2025).

On to `FC(F)(F)c1ncc2c(Oc3ncccn3)cccc2n1` [Compound 1.008], for which the figures for the “percentage damage caused to the plant, AMAPA” value with AMAPA [1] and with AMAPA [3] were 3 (3=41-60%) and 4 (4=61-80%), respectively. In addition, the “percentage damage caused to the plant, AMARE” value in experiment [2] is 3 (3=41-60%); in experiment [6] it was 4 (4=61-80%). In addition, the “percentage damage caused to the plant, SETFA” value with Setaria faberi (SETFA) [4] was 4 (4=61-80%); in the experiment on Setaria faberi (SETFA) [10], 1 (1=0-20%). The “percentage damage caused to the plant, ECHCG” value in experiment [5] and in [7] was 1 (1=0-20%) throughout. The “percentage damage caused to the plant, IPOHE” value in experiment [8] and in experiment [9] was 3 (3=41-60%) in each case.
On to `FC(F)Oc1cnc(Oc2cccc3nc(C(F)(F)F)ncc23)nc1` [Compound 1.009], for which the “percentage damage caused to the plant, AMAPA” value with AMAPA [1] was 1 (1=0-20%); in the experiment on AMAPA [3], 2 (2=21-40%). For the same molecule, the “percentage damage caused to the plant, AMARE” value in [2] and in experiment [6] was 1 (1=0-20%) throughout. For the same molecule, the “percentage damage caused to the plant, SETFA” value in the experiment with Setaria faberi (SETFA) [4] and in the experiment with Setaria faberi (SETFA) [10] was 1 (1=0-20%) each time. Further, the “percentage damage caused to the plant, ECHCG” value in experiment [5] and in experiment [7] was 1 (1=0-20%) each time. Further, the “percentage damage caused to the plant, IPOHE” value in experiment [8] and in experiment [9] was 1 (1=0-20%) throughout.
In the case of `COc1ncc2c(Oc3ncc(Cl)cn3)cccc2n1` [Compound 1.016], the “percentage damage caused to the plant, AMAPA” value with AMAPA [1] and in the experiment on AMAPA [3] was 5 (5=81-100%) each time. In addition, the “percentage damage caused to the plant, AMARE” value was 4 (4=61-80%) in [2] and 5 (5=81-100%) in experiment [6]. In addition, the “percentage damage caused to the plant, SETFA” value is given as 3 (3=41-60%) with Setaria faberi (SETFA) [4] and 1 (1=0-20%) with Setaria faberi (SETFA) [10]. Moreover, the “percentage damage caused to the plant, ECHCG” value in experiment [5] is listed as 1 (1=0-20%); in experiment [7], 3 (3=41-60%). Also, the “percentage damage caused to the plant, IPOHE” value is given as 4 (4=61-80%) in experiment [8] and 2 (2=21-40%) in experiment [9].
Regarding `FC(F)c1ncc2c(Oc3ncc(Cl)cn3)cccc2n1` [Compound 1.019], the “percentage damage caused to the plant, AMAPA” value is given as 3 (3=41-60%) with AMAPA [1] and 5 (5=81-100%) in the experiment on AMAPA [3]. Further, the “percentage damage caused to the plant, AMARE” value in experiment [2] was 4 (4=61-80%); in experiment [6] it was 5 (5=81-100%). For the same molecule, the “percentage damage caused to the plant, SETFA” value with Setaria faberi (SETFA) [4] was 5 (5=81-100%); in the experiment with Setaria faberi (SETFA) [10], 3 (3=41-60%). In addition, the “percentage damage caused to the plant, ECHCG” value in experiment [5] is 2 (2=21-40%); in experiment [7], 5 (5=81-100%). The “percentage damage caused to the plant, IPOHE” value in experiment [8] and in [9] was 4 (4=61-80%) throughout.
On to `FC(F)(F)c1ccc2c(Oc3ncc(Cl)cn3)cccc2n1` [Compound 1.020, 5-(5-chloropyrimidin-2-yl)oxy-2 (trifluoromethyl)quinoline], for which the “percentage damage caused to the plant, AMAPA” value in the experiment on AMAPA [1] and with AMAPA [3] was 5 (5=81-100%) in each case. Moreover, the “percentage damage caused to the plant, AMARE” value in experiment [2] and in experiment [6] was 5 (5=81-100%) throughout. Further, the “percentage damage caused to the plant, SETFA” value in the experiment with Setaria faberi (SETFA) [4] and with Setaria faberi (SETFA) [10] was 5 (5=81-100%) in each case. Moreover, the “percentage damage caused to the plant, ECHCG” value in experiment [5] was 4 (4=61-80%); in experiment [7] it was 5 (5=81-100%). Besides, the “percentage damage caused to the plant, IPOHE” value in [8] and in experiment [9] was 4 (4=61-80%) throughout.
